# Measured values as given in patent US10391201B2, “Gene therapy” (Ospedale San Raffaele S.r.l., priority 2014, dated 2019).
# How the values were obtained:
# [1] = system: bone marrow (BM)-derived CD34+ cells; format: cell-based, human; details: BM-derived CD34+ HSPC; MOI 1; 20 μm FK506, 5 mM 3-MA alone or with 10 μM CsA / 10 μg/mL rapamycin
# Description: (§1) Human CB and BM-derived haematopoietic stem/progenitor cells (HSPC) were cultured in serum-free StemSpan medium (StemCell Technologies) supplemented with 100 ng/mL recombinant human stem cell factor (rhSCF), 20 ng/mL recombinant human thrombopoietin (rhTPO), 100 ng/mL recombinant human Flt3 ligand (rhFlt3) and 20 ng/mL recombinant human IL6 (rhIL6) (all from Peprotech) 16 to 24 hours prior to transduction. HSPC were then transduced at a concentration of 1×10^6 cells per mL with vesicular stomatitis virus glycoprotein (VSV-G)-pseudotyped SINLV for 20 hours at the indicated multiplicity of infection (MOI) in the same medium. After transduction, cells were washed and maintained serum-free StemSpan supplemented with cytokines as above until the reading of GFP-positive (GFP+) cells by FACS. After FACS they were maintained in Roswell Park Memorial Institute medium (RPMI, Lonza) supplemented with 10% FBS, 25 ng/mL rhSCF, 5 ng/mL rhIL6, 25 ng/mL rhFlt3 and 5 ng/mL rhTPO for another seven days before analysis of vector copy numbers. MDM were transduced 7 days after differentiation. T lymphocytes were transduced at a concentration of 10^6 cells per mL, after 3 days of stimulation. All the cells were exposed to the vector for 16-20 hours.
# (§2) They were added to the transduction medium at the indicated concentration and washed out with the vector 16-20 hours later.
# (§3) GFP expression in transduced cells was measured 5-7 days post-transduction. Adherent MDM were detached by scraping in 5 mM PBS-EDTA, washed and resuspended in PBS containing 2% FBS. Cells grown in suspension were washed and resuspended in PBS containing 2% FBS. To exclude dead cells from the analysis, 10 ng/mL 7-aminoactinomycin D (7-AAD) was added.
# (§4) DNA from cell cultures was extracted using a Maxwell 16 instrument (Promega) or Blood & Cell Culture DNA Micro Kit (Qiagen). To amplify the vector sequence, primers and probes complementary to the vector Rev responsive element sequence were used. Vector copy numbers and replication intermediates were normalised to genomic DNA content, which was assessed using the human TERT gene. Quantitative polymerase chain reaction (qPCR) primers and probe sequences and conditions were previously described (Santoni de Sio, F. R. et al (2006) Blood 107: 4257-65).
# [2] = system: cord blood (CB)-derived CD34+ cells; format: cell-based, human; details: CB-derived CD34+ HSPC; MOI 1; 20 μm FK506, 5 mM 3-MA alone or with 10 μM CsA / 10 μg/mL rapamycin
# Description: as §1, §2, §3, §4
smiles,measurement,setting,value
"Cn1cnc(N)c2ncnc1-2 [3-MA, 3-methyladenine]",impact on LV transduction efficiency (in words),[1],little or no effect
same,impact on LV transduction efficiency (in words),[2],little or no effect
